Laboratory results from patent publication US20130123282A1, “SOLID STATE FORMS OF LINAGLIPTIN” (priority 2011, published 2013).

Key:
Assay type in all cases: physicochemical
[1] = Polymorphic stability on storage under different relative humidity levels (XRD)
Description: In addition to the properties mentioned above, Form XXII is particularly important as it can be obtained and exist at ambient conditions as single, pure phase. […] is also particularly advantageous, for example, in being non-hygroscopic and polymorphic stable under different relative humidity levels.
(§1) In addition to the properties mentioned above, Form XXII is particularly important as it can be obtained and exist at ambient conditions as single, pure phase. […] Form XXII is also non-hygroscopic and polymorphic stable under different relative humidity levels.
The XRD analyses were performed on ARL (SCINTAG) powder X-Ray diffractometer model X′TRA equipped with a solid state detector. Copper radiation of 1.5418 Å was used. Scanning parameters: range: 2-40 degrees two-theta; scan mode: continuous scan; step size: 0.05°, and a rate of 3 deg/min. The position of the silicon (111) peak was corrected to be 28.45 degrees two theta. The positions of the XRD peaks for the Linagliptin forms were corrected respectively. […]

[2] = Polymorphic stability when slurried in solvents; conditions: slurrying in different solvents, such as acetonitrile and ethanol
Description: as §1

[3] = Hygroscopicity according to Ph.Eur. chapter 5.11; conditions: non-hygroscopic = less than 0.2% (w/w) absorption of water, Ph.Eur. 5.11
Description: As used herein, and unless stated otherwise, the term “non-hygroscopic” in relation to crystalline Linagliptin refers to less than 0.2% (w/w) absorption of water, for example atmospheric water, by the crystalline Linagliptin, as determined according to Ph.Eur. chapter 5.11 (“Hygroscopicity”)

SMILES	solid form found by XRD after exposure to humidity ([1]; exposed to 100% relative humidity for 7 days)	polymorphic transformation on storage ([1]; stored for 7 days at room temperature under 0-80% relative humidity)	polymorphic transformation on slurrying [2]	polymorphic transformation on storage ([1]; stored for 7 days at room temperature under 0-100% relative humidity)	hygroscopicity [3]
CC#CCn1c(N2CCC[C@@H](N)C2)nc2c1c(=O)n(Cc1nc(C)c3ccccc3n1)c(=O)n2C [Form X, Linagliptin]	Linagliptin form XII	no polymorphic transformation is observed			
CC#CCn1c(N2CCC[C@@H](N)C2)nc2c1c(=O)n(Cc1nc(C)c3ccccc3n1)c(=O)n2C [Form XXII, Linagliptin]			do not transform to other forms	no polymorphic transformation is observed	non-hygroscopic
